Source: patent US9156872B2, “2′-azido substituted nucleoside derivatives and methods of use thereof for the treatment of viral diseases” (priority 2011, dated 2015)

Tested on: HCV replicon cells
Experiment: Cell-based HCV replicon assay (replicon RNA by Taqman real time PCR)
Conditions: HCV replicon 1b, cells harvested on day 3; read-out: 1b EC50

| SMILES | EC50 [µM] |
| --- | --- |
| C[C@@]1(N=[N+]=[N-])[C@@H]2OP(=O)(OC3CCCC3)OC[C@H]2O[C@H]1n1ccc(=O)[nH]c1=O (some centres unmarked) [Compound 88] | 0.4 |

Same assay, conditions: Hepatitis C virus, 72 h, HCV replicon 1b, cells harvested on day 3; read-out: 1b EC50

| SMILES | EC50 [µM] |
| --- | --- |
| CCOc1nc(N)nc2c1ncn2[C@@H]1O[C@H](CO)[C@@H](O)[C@@]1(C)N=[N+]=[N-] [Compound 8] | > 100 |
| COc1nc(N)nc2c1ncn2[C@@H]1O[C@@H]2COP(=O)(OC3CCCC3)O[C@H]2[C@@]1(C)N=[N+]=[N-] (some centres unmarked) [Compound 105] | 17.1 |
| CCOc1nc(N)nc2c1ncn2[C@@H]1O[C@@H]2COP(=O)(OC3CCCCC3)O[C@H]2[C@@]1(C)N=[N+]=[N-] (some centres unmarked) [Compound 106] | 49.9 |
| CCCOP1(=O)OC[C@H]2O[C@@H](n3ccc(=O)[nH]c3=O)[C@](C)(N=[N+]=[N-])[C@@H]2O1 (some centres unmarked) [Compound 85] | > 100 |
| CC(C)OP1(=O)OC[C@H]2O[C@@H](n3ccc(N)nc3=O)[C@](C)(N=[N+]=[N-])[C@@H]2O1 (some centres unmarked) [Compound 19] | > 100 |

Same assay, conditions: Hepatitis C virus, 72 h, read-out: 1b EC50

| SMILES | EC50 [µM] |
| --- | --- |
| COC(=O)[C@H](C)NP(=O)(OC[C@H]1O[C@@H](n2cnc3c(NC4CC4)nc(N)nc32)[C@](C)(N=[N+]=[N-])[C@@H]1O)Oc1ccccc1Cl (some centres unmarked) [Compound 385] | 1.4 |
| CCCOC(=O)[C@H](C)N[P@@](=O)(OC[C@H]1O[C@@H](n2ccc(=O)[nH]c2=O)[C@](C)(N=[N+]=[N-])[C@@H]1O)Oc1cccc2ccccc12 (single isomer, unassigned) [Compound 375] | 0.8 |
| CCOC(=O)c1cccc(OP(=O)(N[C@@H](C)C(=O)OC)OC[C@H]2O[C@@H](n3ccc(=O)[nH]c3=O)[C@](C)(N=[N+]=[N-])[C@@H]2O)c1 (single isomer, unassigned) [Compound 213] | 7.9 |
| C[C@H](NP(=O)(OC[C@H]1O[C@@H](n2ccc(=O)[nH]c2=O)[C@](C)(N=[N+]=[N-])[C@@H]1O)Oc1ccc(Cl)cc1)C(=O)OCc1ccccc1 (some centres unmarked) [Compound 304] | 60 |
| CCOc1nc(N)nc2c1ncn2[C@@H]1O[C@H](COP(=O)(N[C@@H](C)C(=O)OC)Oc2ccccc2Cl)[C@@H](O)[C@@]1(C)N=[N+]=[N-] (single isomer, unassigned) [Compound 309] | 0.57 |
| COC(=O)[C@H](C)NP(=O)(OC[C@H]1O[C@@H](n2cnc3c(N4CCC4)nc(N)nc32)[C@](C)(N=[N+]=[N-])[C@@H]1O)Oc1ccccc1 (some centres unmarked) [Compound 390] | 3.4 |
| COc1nc(N)nc2c1ncn2[C@@H]1O[C@H](COP(=O)(N[C@@H](C)C(=O)OCC(C)(C)C)Oc2ccccc2)[C@@H](O)[C@@]1(C)N=[N+]=[N-] (some centres unmarked) [Compound 55] | 1.1 |
| CCCCOC(=O)[C@H](C)NP(=O)(OC[C@H]1O[C@@H](n2ccc(=O)[nH]c2=O)[C@](C)(N=[N+]=[N-])[C@@H]1O)Oc1ccc(Cl)cc1 (some centres unmarked) [Compound 369] | 0.5 |
| C[C@H](NP(=O)(OC[C@H]1O[C@@H](n2ccc(=O)[nH]c2=O)[C@](C)(N=[N+]=[N-])[C@@H]1O)Oc1ccccc1)C(=O)OC1CCCCC1 (some centres unmarked) [Compound 144] | 0.7 |
| COC(=O)[C@H](C)NP(=O)(OC)OC[C@H]1O[C@@H](n2ccc(N)nc2=O)[C@](C)(N=[N+]=[N-])[C@@H]1O (single isomer, unassigned) [Compound 345] | > 100 |
| COC(=O)c1ccccc1OP(=O)(N[C@@H](C)C(=O)OC(C)C)OC[C@H]1O[C@@H](n2ccc(=O)[nH]c2=O)[C@](C)(N=[N+]=[N-])[C@@H]1O (some centres unmarked) [Compound 219] | 22 |
| C[C@H](NP(=O)(OC[C@H]1O[C@@H](n2ccc(N)nc2=O)[C@](C)(N=[N+]=[N-])[C@@H]1O)Oc1ccccc1)C(=O)OCC(C)(C)C (some centres unmarked) [Compound 14] | 32 |
| COc1nc(N)nc2c1ncn2[C@@H]1O[C@H](COP(=O)(N[C@@H](C)C(=O)OC2CCCCC2)Oc2ccc(Cl)cc2)[C@@H](O)[C@@]1(C)N=[N+]=[N-] (single isomer, unassigned) [Compound 272] | 3.7 |
| CCOC(=O)[C@H](C)NP(=O)(OC[C@H]1O[C@@H](n2ccc(=O)[nH]c2=O)[C@](C)(N=[N+]=[N-])[C@@H]1O)Oc1ccccc1 (some centres unmarked) [Compound 15] | 1.4 |
| CCOP1(=O)OC[C@H]2O[C@@H](n3ccc(=O)[nH]c3=O)[C@](C)(N=[N+]=[N-])[C@@H]2O1 (some centres unmarked) [Compound 567] | > 100 |
| CCOc1nc(N)nc2c1ncn2[C@@H]1O[C@H](COP(=O)(N[C@@H](C)C(=O)OC2CCCCC2)Oc2ccc(Cl)cc2)[C@@H](O)[C@@]1(C)N=[N+]=[N-] (single isomer, unassigned) [Compound 313] | 0.66 |
| COC(=O)[C@H](C)NP(=O)(OC[C@H]1O[C@@H](n2ccc(N)nc2=O)[C@](C)(N=[N+]=[N-])[C@@H]1O)Oc1ccccc1Cl (some centres unmarked) [Compound 93] | 12 |
| CCOC(=O)[C@H](C)NP(=O)(OC[C@H]1O[C@@H](n2cnc3c(OC)nc(N)nc32)[C@](C)(N=[N+]=[N-])C1O)Oc1ccccc1 (single isomer, unassigned) [Compound 251] | 0.4 |
| CCCCOC(=O)[C@H](C)NP(=O)(OC[C@H]1O[C@@H](n2cnc3c(OCC)nc(N)nc32)[C@](C)(N=[N+]=[N-])[C@@H]1O)Oc1ccc(Cl)c(Cl)c1 (some centres unmarked) [Compound 370] | 10 |
| CCCCOC(=O)[C@H](C)NP(=O)(OC[C@H]1O[C@@H](n2ccc(=O)[nH]c2=O)[C@](C)(N=[N+]=[N-])[C@@H]1O)Oc1ccccc1Cl (some centres unmarked) [Compound 377] | 6.8 |

Same assay, conditions: read-out: 1b EC50

| SMILES | EC50 [µM] |
| --- | --- |
| C[C@H](NP(=O)(OC[C@H]1O[C@@H](n2ccc(=O)[nH]c2=O)[C@](C)(N=[N+]=[N-])[C@@H]1O)Oc1ccccc1)C(=O)OCC(C)(C)C (single isomer, unassigned) [Compound 154] | 0.7 |
| COc1nc(N)nc2c1ncn2[C@@H]1O[C@H](COP(=O)(N[C@@H](C)C(=O)OCc2ccccc2)Oc2ccccc2)[C@@H](O)[C@@]1(C)N=[N+]=[N-] (single isomer, unassigned) [Compound 279] | 1 |
| C[C@H](NP(=O)(OC[C@H]1O[C@@H](n2ccc(N)nc2=O)[C@](C)(N=[N+]=[N-])[C@@H]1O)Oc1ccc(Cl)cc1)C(=O)OC1CCCCC1 (single isomer, unassigned) [Compound 340] | 20 |
| CCOc1nc(N)nc2c1ncn2[C@@H]1O[C@H](COP(=O)(N[C@@H](C)C(=O)OC(C)C)Oc2ccccc2Cl)[C@@H](O)[C@@]1(C)N=[N+]=[N-] (single isomer, unassigned) [Compound 316] | 27.9 |
| CCOC(=O)[C@H](C)NP(=O)(OC[C@H]1O[C@@H](n2ccc(=O)[nH]c2=O)[C@](C)(N=[N+]=[N-])[C@@H]1O)Oc1ccccc1 (single isomer, unassigned) [Compound 152] | 0.5 |
| CCCOC(=O)[C@H](C)NP(=O)(OC[C@H]1O[C@@H](n2cnc3c(OC)nc(N)nc32)[C@](C)(N=[N+]=[N-])C1O)Oc1ccccc1 (single isomer, unassigned) [Compound 288] | 0.9 |
| COC(=O)c1ccccc1OP(=O)(N[C@@H](C)C(=O)OC)OC[C@H]1O[C@@H](n2ccc(=O)[nH]c2=O)[C@](C)(N=[N+]=[N-])[C@@H]1O (single isomer, unassigned) [Compound 215] | 3.1 |
| COC(=O)[C@H](C)NP(=O)(OC[C@H]1O[C@@H](n2ccc(N)nc2=O)[C@](C)(N=[N+]=[N-])[C@@H]1O)Oc1ccc(Cl)c(Cl)c1 (single isomer, unassigned) [Compound 193] | 61 |
| COC(=O)[C@H](C)NP(=O)(OC[C@H]1O[C@@H](n2cnc3c(OC)nc(N)nc32)[C@](C)(N=[N+]=[N-])C1O)Oc1ccccc1 (single isomer, unassigned) [Compound 261] | 0.9 |
| CCOC(=O)c1cccc(OP(=O)(N[C@@H](C)C(=O)OC)OC[C@H]2O[C@@H](n3ccc(=O)[nH]c3=O)[C@](C)(N=[N+]=[N-])[C@@H]2O)c1 (single isomer, unassigned) [Compound 214] | 12 |
| COC(=O)[C@H](C)NP(=O)(OC[C@H]1O[C@@H](n2ccc(=O)[nH]c2=O)[C@](C)(N=[N+]=[N-])[C@@H]1O)Oc1ccccc1 (single isomer, unassigned) [Compound 159] | 6.2 |
| CCCOC(=O)[C@H](C)NP(=O)(OC[C@H]1O[C@@H](n2cnc3c(OCC)nc(N)nc32)[C@](C)(N=[N+]=[N-])[C@@H]1O)Oc1ccccc1 (single isomer, unassigned) [Compound 164] | 1 |
| CCOC(=O)[C@H](C)NP(=O)(OC[C@H]1O[C@@H](n2cnc3c(OCC)nc(N)nc32)[C@](C)(N=[N+]=[N-])[C@@H]1O)Oc1ccc(F)cc1 (single isomer, unassigned) [Compound 176] | 0.3 |
| C[C@H](NP(=O)(OC[C@H]1O[C@@H](n2ccc(=O)[nH]c2=O)[C@](C)(N=[N+]=[N-])[C@@H]1O)Oc1ccc2c(c1)OCO2)C(=O)OCc1ccccc1 (some centres unmarked) [Compound 306] | 1.3 |
| CCOc1nc(N)nc2c1ncn2[C@@H]1O[C@H](COP(=O)(N[C@@H](C)C(=O)OC2CCC2)Oc2ccccc2)[C@@H](O)[C@@]1(C)N=[N+]=[N-] (single isomer, unassigned) [Compound 362] | 2.6 |
| C[C@H](NP(=O)(OC[C@H]1O[C@@H](n2ccc(=O)[nH]c2=O)[C@](C)(N=[N+]=[N-])[C@@H]1O)Oc1ccccc1)C(=O)O[C@H](C)c1ccccc1 (single isomer, unassigned) [Compound 303] | 46.9 |
| CCOC(=O)[C@H](C)NP(=O)(OC[C@H]1O[C@@H](n2cnc3c(OCC)nc(N)nc32)[C@](C)(N=[N+]=[N-])[C@@H]1O)Oc1ccccc1 (some centres unmarked) [Compound 558] | 1 |
| COc1nc(N)nc2c1ncn2[C@@H]1O[C@H](COP(=O)(N[C@@H](C)C(=O)OC(C)C)Oc2ccccc2Cl)[C@@H](O)[C@@]1(C)N=[N+]=[N-] (single isomer, unassigned) [Compound 281] | 12 |
| CCCCOC(=O)[C@H](C)NP(=O)(OC[C@H]1O[C@@H](n2ccc(=O)[nH]c2=O)[C@](C)(N=[N+]=[N-])[C@@H]1O)Oc1cccc2ccccc12 (single isomer, unassigned) [Compound 156] | 1.5 |
| COC(=O)[C@H](C)NP(=O)(OC[C@H]1O[C@@H](n2ccc(=O)[nH]c2=O)[C@](C)(N=[N+]=[N-])[C@@H]1O)Oc1ccc(Cl)cc1 (some centres unmarked) [Compound 325] | 4 |
| CCOc1nc(N)nc2c1ncn2[C@@H]1O[C@H](COP(=O)(N[C@@H](C)C(=O)OC(C)C)Oc2ccccc2Cl)[C@@H](O)[C@@]1(C)N=[N+]=[N-] (single isomer, unassigned) [Compound 315] | 9.2 |
